# Entries after “also recorded” stand apart in the source; their conditions may differ.
# Tests used:
# [1] = test system: P388 lymphocytic leukemia; assay: P388 lymphocytic leukemia in vivo, median survival, 30-day test (Examples 7 and 8); set-up: species or system CD2 F1 female mice
# Procedure: For examples 7 and 8, CD2 F1 female mice were used and challenged with P388 lymphocytic leukemia tumors. […] The test period was for thirty days in both Examples 7 and 8.
# For Examples 7 and 8, as well as Examples 9 and 10 below, any animal of the drug treated group which survived beyond the end of the testing period was then evaluated and placed in one of three groups. The first group was designated as cured, meaning the animal was successfully cured of the tumor. The second group designation was no-takes, meaning survival of the animal was considered to be due to failure of tumor implant. The remaining group was designated as tumor survivors meaning the animals lived beyond the test cut-off date but could not be classified as either cured or no-takes.
# For both Examples 7 and 8, thirty animals were used as the control group and six animals each were used at each dose level indicated in tables 3 and 4 below in the drug treated groups. In both Examples 7 and 8, for both the control group and the drug treated groups, tumors were induced by IP inoculation of tumor seed cells on day zero followed by initiation of drug treatment on day one. For both Examples 7a and 8, saline with tween/80 was used as the drug vehicle. For Examples 7b and 7c, water was used as the drug vehicle.
# In both the control group and the drug treated group in Examples 7 and 8, the test animals were inoculated on day zero IP with 10^6 seed cells of P388 lymphocytic leukemia. In both Examples 7 and 8, treatment of the drug group was started on day one and the drug was given IP once daily for nine days. Day six was utilized as the cut-off data for death attributable to toxicity of the drug. […] Efficacy of treatment was determined by comparing median survival time of the drug treated animals compared to median survival time of the control animals, and is expressed as percentage increase of treated animals/control animals (T/C) as per Example 5.
# In this example drug treated animals were injected IP with the dose level noted in Table 3 below. Six animals were treated at each dose level. No control animals survived beyond day 18 with a median death date of day 12.6.
# This examples was performed as per Example 7a at dose levels as noted in table 3b below. A survivor at both the 700 and 800 mg/Kg level was judged as cured. No controls survived beyond day 12 and the mean death day of the control group was day 11.
# This example was run as per Example 7a above at dose levels noted in Table 3c below. All controls were dead by day 14 with a mean death day of day 11.9. At the 500 mg/Kg level, one animal was judged as a cure.
# Compound 2, 2-(2,3,5-tri-O-acetyl-β-D-ribofuranosyl)thiazole-4-carboxamide was tested as per Example 7a above at dose levels noted in Table 4 below. No controls survived beyond day 18 with an average death date of day 12.6.
# L-1210 lymphoid leukemia = L-1210 lymphoid leukemia in vivo, mean survival, 30-day test (Example 9); set-up: species or system CD2 F1 male mice
# Excerpt: For Example 9a and 9b, CD2 F1 male mice were used and challenged with L-1210 lymphoid leukemia. […] The test period was for thirty days. Test results are expressed as T/C as per Example 5.
# In Example 9a, 24 control animals were used and six test animals at each drug dose level as is indicated below in table 9a. For both the control group and the drug test group, tumors were induced by IP inoculation of tumor seed cells on day zero followed by initiation of drug treatment on day one. For example 9a, water was used as the drug vehicle and for Examples 9b saline was used as the drug vehicle.
# In both the control groups and the drug treated groups in Examples 9a and 9b, the test animals were inoculated on day zero IP with 10^6 seed cells of L-1210 lymphoid leukemia. For Example 9a, drug treatment was started on day one and compound 1 given once daily for nine days. Day five was utilized as the cutoff date for death attributable to toxicity of the drug. […] Efficacy of treatment was determined by comparing mean survival time of drug treated animals with mean survival time of the control animals and is expressed as percentage increase of treated animals/control animals (T/C) as per Example 5.
# In this example, the drug treated animals were injected IP with dose levels noted in table 5a below. Six animals were treated at each dose level. No control animals survived beyond day ten with a mean death date of day 9.7.
# In this example, drug treated animals were injected IP with the dose level noted in table 5b below. Ten animals were treated at each dose level. No control animals survived beyond day ten with a mean death date of day 9.0.
smiles,measurement,setting,value
"NC(=O)c1csc([C@@H]2O[C@H](CO)[C@@H](O)[C@H]2O)n1 [Compound 1, 2-β-D-Ribofuranosylthiazole-4-Carboxamide]",Percent Treated Animals/Control Animals,"[1]; Ex. 7a/8, saline with tween/80, 12.5 mg/Kg IP once daily x9",110%
same,Treated Group Survival Time (median),"[1]; Ex. 7a/8, saline with tween/80, 12.5 mg/Kg IP once daily x9, control 12.6",13.9 days
same,Percent Treated Animals/Control Animals,"[1]; Ex. 7a/8, saline with tween/80, 25 mg/Kg IP once daily x9",113%
same,Treated Group Survival Time (median),"[1]; Ex. 7a/8, saline with tween/80, 25 mg/Kg IP once daily x9, control 12.6",14.3 days
same,Percent Treated Animals/Control Animals,"[1]; Ex. 7a/8, saline with tween/80, 50 mg/Kg IP once daily x9",121%
same,Treated Group Survival Time (median),"[1]; Ex. 7a/8, saline with tween/80, 50 mg/Kg IP once daily x9, control 12.6",15.3 days
same,Percent Treated Animals/Control Animals,"[1]; Ex. 7a/8, saline with tween/80, 100 mg/Kg IP once daily x9",145%
same,Treated Group Survival Time (median),"[1]; Ex. 7a/8, saline with tween/80, 100 mg/Kg IP once daily x9, control 12.6",18.3 days
same,Percent Treated Animals/Control Animals,"[1]; Ex. 7a/8, saline with tween/80, 200 mg/Kg IP once daily x9",150%
same,Treated Group Survival Time (median),"[1]; Ex. 7a/8, saline with tween/80, 200 mg/Kg IP once daily x9, control 12.6",19.0 days
same,Percent Treated Animals/Control Animals,"[1]; Ex. 7a/8, saline with tween/80, 400 mg/Kg IP once daily x9",161%
same,Treated Group Survival Time (median),"[1]; Ex. 7a/8, saline with tween/80, 400 mg/Kg IP once daily x9, control 12.6",20.3 days
same,surviving animals judged as no-take,"[1]; Ex. 7a/8, 50 mg/Kg, thirty days",one drug treated animal survived and was judged as a no-take
same,Percent Treated Animals/Control Animals,"[1]; Ex. 7b, water, 300 mg/Kg IP once daily x9",198%
same,Treated Group Survival Time (median),"[1]; Ex. 7b, water, 300 mg/Kg IP once daily x9, control 11.0",21.8 days
same,Percent Treated Animals/Control Animals,"[1]; Ex. 7b, water, 400 mg/Kg IP once daily x9",224%
same,Treated Group Survival Time (median),"[1]; Ex. 7b, water, 400 mg/Kg IP once daily x9, control 11.0",24.7 days
same,Percent Treated Animals/Control Animals,"[1]; Ex. 7b, water, 500 mg/Kg IP once daily x9",190%
same,Treated Group Survival Time (median),"[1]; Ex. 7b, water, 500 mg/Kg IP once daily x9, control 11.0",21.8 days
same,Percent Treated Animals/Control Animals,"[1]; Ex. 7b, water, 600 mg/Kg IP once daily x9",234%
same,Treated Group Survival Time (median),"[1]; Ex. 7b, water, 600 mg/Kg IP once daily x9, control 11.0",25.8 days
same,Percent Treated Animals/Control Animals,"[1]; Ex. 7b, water, 700 mg/Kg IP once daily x9",245%
same,Treated Group Survival Time (median),"[1]; Ex. 7b, water, 700 mg/Kg IP once daily x9, control 11.0",27.0 days
same,Percent Treated Animals/Control Animals,"[1]; Ex. 7b, water, 800 mg/Kg IP once daily x9",245%
same,Treated Group Survival Time (median),"[1]; Ex. 7b, water, 800 mg/Kg IP once daily x9, control 11.0",27.0 days
same,survivors judged as cured,"[1]; Ex. 7b, 700 mg/Kg, thirty days",A survivor
same,survivors judged as cured,"[1]; Ex. 7b, 800 mg/Kg, thirty days",A survivor
same,Percent Treated Animals/Control Animals,"[1]; Ex. 7c, water, 300 mg/Kg IP once daily x9",193%
same,Treated Group Survival Time (median),"[1]; Ex. 7c, water, 300 mg/Kg IP once daily x9, control 11.9",23.0 days
same,Percent Treated Animals/Control Animals,"[1]; Ex. 7c, water, 400 mg/Kg IP once daily x9",201%
same,Treated Group Survival Time (median),"[1]; Ex. 7c, water, 400 mg/Kg IP once daily x9, control 11.9",24.0 days
same,Percent Treated Animals/Control Animals,"[1]; Ex. 7c, water, 500 mg/Kg IP once daily x9",210%
same,Treated Group Survival Time (median),"[1]; Ex. 7c, water, 500 mg/Kg IP once daily x9, control 11.9",25.0 days
same,Percent Treated Animals/Control Animals,"[1]; Ex. 7c, water, 600 mg/Kg IP once daily x9",237%
same,Treated Group Survival Time (median),"[1]; Ex. 7c, water, 600 mg/Kg IP once daily x9, control 11.9",28.3 days
same,Percent Treated Animals/Control Animals,"[1]; Ex. 7c, water, 700 mg/Kg IP once daily x9",86%
same,Treated Group Survival Time (median),"[1]; Ex. 7c, water, 700 mg/Kg IP once daily x9, control 11.9",10. day
same,Percent Treated Animals/Control Animals,"[1]; Ex. 7c, water, 800 mg/Kg IP once daily x9",99%
same,Treated Group Survival Time (median),"[1]; Ex. 7c, water, 800 mg/Kg IP once daily x9, control 11.9",11.8 days
same,animals judged as a cure,"[1]; Ex. 7c, 500 mg/Kg, thirty days",one animal
same,animal mortality attributed to drug toxicity,"[1]; Example 7b, day six cut-off",only one instance
same,activity against P388 lymphocytic leukemia,"[1]; Examples 7 and 8, multiple dose",active antitumor agents; also recorded: active against P388 lymphocytic leukemia
same,DN 2 (Decision Network) criteria of the National Cancer Institute,[1]; P388,successfully passed
same,Percent Treated Animals/Control Animals,"L-1210 lymphoid leukemia; Ex. 9a, water, 25 mg/Kg IP once daily x9",131%
same,Treated Group Survival Time (mean),"L-1210 lymphoid leukemia; Ex. 9a, water, 25 mg/Kg IP once daily x9, control 9.7",12.8 days
same,Percent Treated Animals/Control Animals,"L-1210 lymphoid leukemia; Ex. 9a, water, 50 mg/Kg IP once daily x9",136%
same,Treated Group Survival Time (mean),"L-1210 lymphoid leukemia; Ex. 9a, water, 50 mg/Kg IP once daily x9, control 9.7",13.2 days
same,Percent Treated Animals/Control Animals,"L-1210 lymphoid leukemia; Ex. 9a, water, 100 mg/Kg IP once daily x9",144%
same,Treated Group Survival Time (mean),"L-1210 lymphoid leukemia; Ex. 9a, water, 100 mg/Kg IP once daily x9, control 9.7",14.0 days
same,Percent Treated Animals/Control Animals,"L-1210 lymphoid leukemia; Ex. 9a, water, 200 mg/Kg IP once daily x9",157%
same,Treated Group Survival Time (mean),"L-1210 lymphoid leukemia; Ex. 9a, water, 200 mg/Kg IP once daily x9, control 9.7",15.3 days
same,Percent Treated Animals/Control Animals,"L-1210 lymphoid leukemia; Ex. 9a, water, 400 mg/Kg IP once daily x9",192%
same,Treated Group Survival Time (mean),"L-1210 lymphoid leukemia; Ex. 9a, water, 400 mg/Kg IP once daily x9, control 9.7",18.7 days
same,Percent Treated Animals/Control Animals,"L-1210 lymphoid leukemia; Ex. 9b, saline, 100 mg/Kg IP",183%
same,Treated Group Survival Time (mean),"L-1210 lymphoid leukemia; Ex. 9b, saline, 100 mg/Kg IP, control 9.0",16.5 days
same,Percent Treated Animals/Control Animals,"L-1210 lymphoid leukemia; Ex. 9b, saline, 200 mg/Kg IP",182%
same,Treated Group Survival Time (mean),"L-1210 lymphoid leukemia; Ex. 9b, saline, 200 mg/Kg IP, control 9.0",16.4 days
same,Percent Treated Animals/Control Animals,"L-1210 lymphoid leukemia; Ex. 9b, saline, 400 mg/Kg IP",224%
same,Treated Group Survival Time (mean),"L-1210 lymphoid leukemia; Ex. 9b, saline, 400 mg/Kg IP, control 9.0",20.2 days
same,Percent Treated Animals/Control Animals,"L-1210 lymphoid leukemia; Ex. 9b, saline, 600 mg/Kg IP",230%
same,Treated Group Survival Time (mean),"L-1210 lymphoid leukemia; Ex. 9b, saline, 600 mg/Kg IP, control 9.0",20.7 days
same,Percent Treated Animals/Control Animals,"L-1210 lymphoid leukemia; Ex. 9b, saline, 800 mg/Kg IP",171%
same,Treated Group Survival Time (mean),"L-1210 lymphoid leukemia; Ex. 9b, saline, 800 mg/Kg IP, control 9.0",15.4 days
same,activity against L-1210 lymphoid leukemia,L-1210 lymphoid leukemia; Example 9,active against L-1210 lymphoid leukemia
same,mortality attributed to drug toxicity,"L-1210 lymphoid leukemia; Example 9b, day five cut-off",only one instance
same,DN 2 criteria of the National Cancer Institute,L-1210 lymphoid leukemia; L-1210,successfully passed
